From ChEMBL document CHEMBL4393691, “Design, synthesis and antitumor evaluation of novel celastrol derivatives” (Eur J Med Chem, 2019)
Activity calls are given as the source filed them. No cut-off for these calls is given here.

What was measured:
[1] = system: MCF7; test: Antiproliferative activity against human MCF7 cells assessed as reduction in cell viability at 1 uM incubated for 48 hrs by MTT assay relative to control; format: functional; conditions: MCF7, 48 h
[2] = system: A549; test: cells; conditions: Homo sapiens, A549, 48 h
[3] = system: MCF7; test: cells; conditions: Homo sapiens, MCF7, 48 h
[4] = system: HepG2; test: Cytotoxicity against human HepG2 cells assessed as reduction in cell viability incubated for 48 hrs by MTT assay; format: functional, cell-based; conditions: HepG2, 48 h
[5] = system: A549; test: Induction of apoptosis in human A549 cells assessed as viable cells at 2 uM incubated for 24 hrs by AnnexinV-FITC/propidium iodide staining-based flow cytometric analysis (reference value: 88.1%); format: functional; conditions: A549, 24 h, read-out: Activity
[6] = system: A549; test: Induction of apoptosis in human A549 cells assessed as late apoptotic cells at 2 uM incubated for 24 hrs by AnnexinV-FITC/propidium iodide staining-based flow cytometric analysis (reference value: 4.2%); format: functional
[7] = system: A549; test: Induction of apoptosis in human A549 cells assessed as necrotic cells at 2 uM incubated for 24 hrs by AnnexinV-FITC/propidium iodide staining-based flow cytometric analysis (reference value: 3.6%); format: functional
[8] = system: A549; test: Induction of apoptosis in human A549 cells assessed as early apoptotic cells at 2 uM incubated for 24 hrs by AnnexinV-FITC/propidium iodide staining-based flow cytometric analysis (reference value: 4.1%); format: functional
[9] = system: A549; test: Inhibition of Hsp90-Cdc37 interaction in human A549 cells assessed as decrease in Cdc37 protein level at 5 uM incubated for 6 hrs by immunoprecipitation assay; format: cell-based

Compound | inhibition at 1 µM [1] [%] | other results
COC(=O)/C=C/c1cc(OC)c(OCCCCOC(=O)[C@]2(C)CC[C@]3(C)CC[C@]4(C)C5=CC=C6C(=CC(=O)C(O)=C6C)[C@]5(C)CC[C@@]4(C)[C@@H]3C2)c(OC)c1 | 7.52 | –
COC(=O)/C=C/c1ccc(OC/C=C/COC(=O)[C@]2(C)CC[C@]3(C)CC[C@]4(C)C5=CC=C6C(=CC(=O)C(O)=C6C)[C@]5(C)CC[C@@]4(C)[C@@H]3C2)c(OC)c1 | 32.5 | –
COC(=O)/C=C\c1cccc(OCCCOC(=O)[C@]2(C)CC[C@]3(C)CC[C@]4(C)C5=CC=C6C(=CC(=O)C(O)=C6C)[C@]5(C)CC[C@@]4(C)[C@@H]3C2)c1 | 33 | –
COC(=O)/C=C/c1cc(OC)c(OC/C=C/COC(=O)[C@]2(C)CC[C@]3(C)CC[C@]4(C)C5=CC=C6C(=CC(=O)C(O)=C6C)[C@]5(C)CC[C@@]4(C)[C@@H]3C2)c(OC)c1 | 18 | –
COC(=O)/C(C#N)=C\c1ccc(OC)c(OCCCOC(=O)[C@]2(C)CC[C@]3(C)CC[C@]4(C)C5=CC=C6C(=CC(=O)C(O)=C6C)[C@]5(C)CC[C@@]4(C)[C@@H]3C2)c1 | 65.9 | IC50 [2]: 780 nM; IC50 [3]: 640 nM; IC50 [4]: 710 nM
COC(=O)/C(C#N)=C/c1ccc(OCCOC(=O)[C@]2(C)CC[C@]3(C)CC[C@]4(C)C5=CC=C6C(=CC(=O)C(O)=C6C)[C@]5(C)CC[C@@]4(C)[C@@H]3C2)c(OC)c1 | 59.9 | –
COC(=O)/C=C/c1ccc(OC/C=C/COC(=O)[C@]2(C)CC[C@]3(C)CC[C@]4(C)C5=CC=C6C(=CC(=O)C(O)=C6C)[C@]5(C)CC[C@@]4(C)[C@@H]3C2)cc1 | 5.29 | –
COC(=O)/C(C#N)=C/c1ccc(OCCCOC(=O)[C@]2(C)CC[C@]3(C)CC[C@]4(C)C5=CC=C6C(=CC(=O)C(O)=C6C)[C@]5(C)CC[C@@]4(C)[C@@H]3C2)cc1OC | 11 | –
COC(=O)/C=C\c1ccc(OC)c(OC/C=C/COC(=O)[C@]2(C)CC[C@]3(C)CC[C@]4(C)C5=CC=C6C(=CC(=O)C(O)=C6C)[C@]5(C)CC[C@@]4(C)[C@@H]3C2)c1 | 49.2 | –
COC(=O)/C=C\c1ccc(OC)c(OCCCOC(=O)[C@]2(C)CC[C@]3(C)CC[C@]4(C)C5=CC=C6C(=CC(=O)C(O)=C6C)[C@]5(C)CC[C@@]4(C)[C@@H]3C2)c1 | 67.4 | IC50 [2]: 700 nM; IC50 [3]: 670 nM; IC50 [4]: 650 nM
COC(=O)/C(C#N)=C/c1ccc(OC/C=C/COC(=O)[C@]2(C)CC[C@]3(C)CC[C@]4(C)C5=CC=C6C(=CC(=O)C(O)=C6C)[C@]5(C)CC[C@@]4(C)[C@@H]3C2)c(OC)c1 | 25.7 | –
COC(=O)/C(C#N)=C/c1ccc(OCCCOC(=O)[C@]2(C)CC[C@]3(C)CC[C@]4(C)C5=CC=C6C(=CC(=O)C(O)=C6C)[C@]5(C)CC[C@@]4(C)[C@@H]3C2)cc1 | 22.1 | –
COC(=O)/C=C\c1ccc(OC)c(OCCCCOC(=O)[C@]2(C)CC[C@]3(C)CC[C@]4(C)C5=CC=C6C(=CC(=O)C(O)=C6C)[C@]5(C)CC[C@@]4(C)[C@@H]3C2)c1 | 40.1 | –
COC(=O)/C=C/c1ccc(OCCCOC(=O)[C@]2(C)CC[C@]3(C)CC[C@]4(C)C5=CC=C6C(=CC(=O)C(O)=C6C)[C@]5(C)CC[C@@]4(C)[C@@H]3C2)cc1 | 50.5 | –
COC(=O)/C=C/c1ccc(OCCOC(=O)[C@]2(C)CC[C@]3(C)CC[C@]4(C)C5=CC=C6C(=CC(=O)C(O)=C6C)[C@]5(C)CC[C@@]4(C)[C@@H]3C2)cc1 | 63.9 | IC50 [2]: 600 nM; IC50 [3]: 670 nM; IC50 [4]: 600 nM
COC(=O)/C(C#N)=C/c1ccc(OCCCOC(=O)[C@]2(C)CC[C@]3(C)CC[C@]4(C)C5=CC=C6C(=CC(=O)C(O)=C6C)[C@]5(C)CC[C@@]4(C)[C@@H]3C2)cc1C | 19.8 | –
COC(=O)[C@]12CCC(C)(C)C[C@H]1[C@H]1C(=O)C=C3[C@@]4(C)C=C(C#N)C(=O)C(C)(C)[C@@H]4CC[C@@]3(C)[C@]1(C)CC2 [BARDOXOLONE METHYL] | – | IC50 [2]: 360 nM; IC50 [3]: 350 nM; IC50 [4]: 260 nM

Compound | inhibition at 1 µM [1] [%] | other results
COC(=O)/C(C#N)=C/c1ccc(OCCCOC(=O)[C@]2(C)CC[C@]3(C)CC[C@]4(C)C5=CC=C6C(=CC(=O)C(O)=C6C)[C@]5(C)CC[C@@]4(C)[C@@H]3C2)c(C)c1 | 21.9 | –
COC(=O)/C(C#N)=C/c1ccc(OCCCOC(=O)[C@]2(C)CC[C@]3(C)CC[C@]4(C)C5=CC=C6C(=CC(=O)C(O)=C6C)[C@]5(C)CC[C@@]4(C)[C@@H]3C2)c(OC)c1 | 66.5 | IC50 [2]: 660 nM; IC50 [3]: 650 nM; IC50 [4]: 750 nM
COC(=O)/C=C/c1ccc(OCCCOC(=O)[C@]2(C)CC[C@]3(C)CC[C@]4(C)C5=CC=C6C(=CC(=O)C(O)=C6C)[C@]5(C)CC[C@@]4(C)[C@@H]3C2)c(OC)c1 | 78.5 | IC50 [2]: 560 nM; IC50 [3]: 450 nM; IC50 [4]: 530 nM
COC(=O)/C(C#N)=C/c1ccc(OCCCOC(=O)[C@]2(C)CC[C@]3(C)CC[C@]4(C)C5=CC=C6C(=CC(=O)C(O)=C6C)[C@]5(C)CC[C@@]4(C)[C@@H]3C2)c(F)c1 | 18.8 | –
COC(=O)/C(C#N)=C/c1ccc(OCCCCOC(=O)[C@]2(C)CC[C@]3(C)CC[C@]4(C)C5=CC=C6C(=CC(=O)C(O)=C6C)[C@]5(C)CC[C@@]4(C)[C@@H]3C2)c(OC)c1 | 13.8 | –
COC(=O)/C(C#N)=C\c1ccc(OC)c(OCCOC(=O)[C@]2(C)CC[C@]3(C)CC[C@]4(C)C5=CC=C6C(=CC(=O)C(O)=C6C)[C@]5(C)CC[C@@]4(C)[C@@H]3C2)c1 | 79.7 | IC50 [2]: 460 nM; IC50 [3]: 300 nM; IC50 [4]: 370 nM
COC(=O)/C(C#N)=C/c1ccc(OCCCOC(=O)[C@]2(C)CC[C@]3(C)CC[C@]4(C)C5=CC=C6C(=CC(=O)C(O)=C6C)[C@]5(C)CC[C@@]4(C)[C@@H]3C2)cc1F | 8.36 | –
COC(=O)/C=C/c1cc(OC)c(OCCOC(=O)[C@]2(C)CC[C@]3(C)CC[C@]4(C)C5=CC=C6C(=CC(=O)C(O)=C6C)[C@]5(C)CC[C@@]4(C)[C@@H]3C2)c(OC)c1 | 60.3 | IC50 [2]: 1070 nM; IC50 [3]: 880 nM; IC50 [4]: 890 nM
COC(=O)/C(C#N)=C\c1ccc(OC)c(OC/C=C/COC(=O)[C@]2(C)CC[C@]3(C)CC[C@]4(C)C5=CC=C6C(=CC(=O)C(O)=C6C)[C@]5(C)CC[C@@]4(C)[C@@H]3C2)c1 | 45.6 | –
COC(=O)/C=C/c1ccc(OCCCCOC(=O)[C@]2(C)CC[C@]3(C)CC[C@]4(C)C5=CC=C6C(=CC(=O)C(O)=C6C)[C@]5(C)CC[C@@]4(C)[C@@H]3C2)cc1 | 0.94 | –
COC(=O)/C=C/c1ccc(OCCOC(=O)[C@]2(C)CC[C@]3(C)CC[C@]4(C)C5=CC=C6C(=CC(=O)C(O)=C6C)[C@]5(C)CC[C@@]4(C)[C@@H]3C2)c(OC)c1 | 27.7 | –
COC(=O)/C=C/c1ccc(OCCCCOC(=O)[C@]2(C)CC[C@]3(C)CC[C@]4(C)C5=CC=C6C(=CC(=O)C(O)=C6C)[C@]5(C)CC[C@@]4(C)[C@@H]3C2)c(OC)c1 | 15.9 | –
COC(=O)/C(C#N)=C\c1ccc(OC)c(OCCCCOC(=O)[C@]2(C)CC[C@]3(C)CC[C@]4(C)C5=CC=C6C(=CC(=O)C(O)=C6C)[C@]5(C)CC[C@@]4(C)[C@@H]3C2)c1 | 27.4 | –
COC(=O)/C(C#N)=C\c1cccc(OCCCOC(=O)[C@]2(C)CC[C@]3(C)CC[C@]4(C)C5=CC=C6C(=CC(=O)C(O)=C6C)[C@]5(C)CC[C@@]4(C)[C@@H]3C2)c1 | 47 | –
CC1=C(O)C(=O)C=C2C1=CC=C1[C@@]2(C)CC[C@@]2(C)[C@@H]3C[C@](C)(C(=O)O)CC[C@]3(C)CC[C@]12C [CELASTROL] | 60.2 | viability at 2 µM [5]: 64.1%; Activity [6]: 16.1%; Activity [7]: 4.8%; IC50 [2]: 1280 nM; Activity [8]: 14.9%; inhibition [9]: Active; IC50 [3]: 1060 nM; IC50 [4]: 1330 nM
COC(=O)/C=C/c1cc(OC)c(OCCCOC(=O)[C@]2(C)CC[C@]3(C)CC[C@]4(C)C5=CC=C6C(=CC(=O)C(O)=C6C)[C@]5(C)CC[C@@]4(C)[C@@H]3C2)c(OC)c1 | 8.61 | –
